Where two headings read alike, the source gives them in different places.
Key:
[1] = 28-day repeat-dose oral toxicokinetics; format: in vivo, CD-1 mouse; details: for Tmax / Cmax / AUC(0-t): CD-1, mouse, plasma; for AUC(0-t): read-out: AUC0-24
Procedure: Toxicokinetics of ribitol was evaluated as part of the 28-day toxicology study in male and female CD-1 mice. […] Toxicokinetic animals were 12/sex in the control group and 48/sex/group in the treated groups. Blood samples were collected on Day 1 and Day 28 at pre-first dose, 0.5, 2, 4, 8 (prior to second dose), 8.5, 10, and 24 h.

[2] = tested on: P448L FKRP mutant mice; test: Efficacy in P448L FKRP mutant mouse model; format: in vivo
Procedure: Glycosylation levels increased from undetectable levels to up to 26% in skeletal muscles with a reduction in disease specific pathology such as central nucleated fibers (diaphragm) and fibrosis (heart).
Ribitol was studied in a P448L FKRP mutant mouse model to assess drug-mediated improvements in matriglycan expression and muscle performance. In one study the mutant mice were treated with doses of 10 g/kg daily by oral gavage or 2.5 g/kg ribitol IV injection weekly for one month.
In a long-term efficacy study the FKRP P448L mutant mice were dosed up to one year by oral gavage. Matriglycan expression was increased as measured by immunohistochemistry and Western Blot analysis after six months of dosing at 2 g/kg, 5 g/kg, and 10 g/kg daily (FIG. 3). […] Diaphragmatic performance was assessed using whole body plethysmography (FIGS. 5A-5F).

[3] = target: hERG (Homo sapiens, UniProt Q12809); test: in vitro
hERG, sequence (Q12809 whole entry): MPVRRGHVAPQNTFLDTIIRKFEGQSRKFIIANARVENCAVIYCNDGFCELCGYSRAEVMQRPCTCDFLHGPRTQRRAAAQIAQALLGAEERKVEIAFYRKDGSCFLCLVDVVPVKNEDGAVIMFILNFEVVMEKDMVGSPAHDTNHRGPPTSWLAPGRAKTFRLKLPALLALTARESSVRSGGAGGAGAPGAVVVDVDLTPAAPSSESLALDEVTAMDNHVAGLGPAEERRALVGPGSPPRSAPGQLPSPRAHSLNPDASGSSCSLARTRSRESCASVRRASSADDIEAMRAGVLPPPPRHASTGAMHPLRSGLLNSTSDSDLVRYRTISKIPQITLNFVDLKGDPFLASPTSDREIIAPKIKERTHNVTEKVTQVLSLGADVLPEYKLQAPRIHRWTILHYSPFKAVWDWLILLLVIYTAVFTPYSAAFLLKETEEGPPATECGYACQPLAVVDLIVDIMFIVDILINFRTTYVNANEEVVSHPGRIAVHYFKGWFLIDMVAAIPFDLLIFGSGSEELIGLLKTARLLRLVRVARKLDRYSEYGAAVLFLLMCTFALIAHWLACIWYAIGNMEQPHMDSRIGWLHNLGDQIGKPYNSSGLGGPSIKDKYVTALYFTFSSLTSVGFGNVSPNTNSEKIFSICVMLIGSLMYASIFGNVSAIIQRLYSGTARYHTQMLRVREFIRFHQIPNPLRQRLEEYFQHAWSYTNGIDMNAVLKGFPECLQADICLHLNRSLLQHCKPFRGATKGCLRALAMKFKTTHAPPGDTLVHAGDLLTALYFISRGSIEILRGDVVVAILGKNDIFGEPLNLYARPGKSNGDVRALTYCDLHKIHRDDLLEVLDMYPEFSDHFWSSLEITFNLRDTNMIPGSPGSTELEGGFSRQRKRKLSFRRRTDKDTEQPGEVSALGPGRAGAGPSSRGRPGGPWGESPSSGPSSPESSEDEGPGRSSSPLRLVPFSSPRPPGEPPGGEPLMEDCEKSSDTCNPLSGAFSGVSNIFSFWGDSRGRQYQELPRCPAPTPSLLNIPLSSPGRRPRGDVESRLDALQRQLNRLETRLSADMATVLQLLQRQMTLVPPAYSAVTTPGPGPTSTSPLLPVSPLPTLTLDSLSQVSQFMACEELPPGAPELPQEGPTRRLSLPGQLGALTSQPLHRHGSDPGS
Procedure: (§1) Therefore, the concentrations chosen for the definitive hERG assay were 0.1, 0.3, 1, and 3 mM, the detected concentrations of postperfusion solution were 0.101, 0.293, 0.999, and 2.90 mM, respectively.

[4] = target: hERG potassium channels (Homo sapiens, UniProt Q12809); test: cell-based
hERG potassium channels, sequence (Q12809 whole entry): as above
Procedure: as §1

[5] = both sexes, po, 0.5 g/kg, 0.5 g/kg/dose BID, Day 1, Mean of sexes
[6] = both sexes, po, 0.5 g/kg, 0.5 g/kg/dose BID, Day 28, Mean of sexes
[7] = both sexes, po, 1 g/kg, 1.0 g/kg/dose BID, Day 1, Mean of sexes
[8] = both sexes, po, 1 g/kg, 1.0 g/kg/dose BID, Day 28, Mean of sexes
[9] = both sexes, po, 1.5 g/kg, 1.5 g/kg/dose BID, Day 1, Mean of sexes
[10] = both sexes, po, 1.5 g/kg, 1.5 g/kg/dose BID, Day 28, Mean of sexes
[11] = female, po, 0.5 g/kg, 0.5 g/kg/dose BID, Day 1, Female
[12] = female, po, 0.5 g/kg, 0.5 g/kg/dose BID, Day 28, Female
[13] = female, po, 1 g/kg, 1.0 g/kg/dose BID, Day 1, Female
[14] = female, po, 1 g/kg, 1.0 g/kg/dose BID, Day 28, Female
[15] = female, po, 1.5 g/kg, 1.5 g/kg/dose BID (3.0 g/kg/day, NOAEL), Day 28, Female
[16] = female, po, 1.5 g/kg, 1.5 g/kg/dose BID, Day 1, Female
[17] = male, po, 0.5 g/kg, 0.5 g/kg/dose BID, Day 1, Male
[18] = male, po, 0.5 g/kg, 0.5 g/kg/dose BID, Day 28, Male
[19] = male, po, 1 g/kg, 1.0 g/kg/dose BID, Day 1, Male
[20] = male, po, 1 g/kg, 1.0 g/kg/dose BID, Day 28, Male
[21] = male, po, 1.5 g/kg, 1.5 g/kg/dose BID (3.0 g/kg/day, NOAEL), Day 28, Male
[22] = male, po, 1.5 g/kg, 1.5 g/kg/dose BID, Day 1, Male

OC[C@@H](O)[C@@H](O)[C@@H](O)CO [ribitol, (2R,3s,4S)-Pentane-1,2,3,4,5-pentol]
drug accumulation ([1]; after 28 days repeated oral administration, any dose level): no apparent ribitol drug accumulation | Tmax ([1]; both sexes, oral, post first dose and post second dose, Day 1 or Day 28): 0.5 h | Cmax [1, 5]: 141 µg/mL | AUC(0-t) [1, 5]: 337 µg·h/mL | Cmax [1, 6]: 140 µg/mL | AUC(0-t) [1, 6]: 422 µg·h/mL | Cmax [1, 7]: 257 µg/mL | AUC(0-t) [1, 7]: 540 µg·h/mL | Cmax [1, 8]: 245 µg/mL | AUC(0-t) [1, 8]: 806 µg·h/mL | Cmax [1, 9]: 384 µg/mL | AUC(0-t) [1, 9]: 1020 µg·h/mL | Cmax [1, 10]: 336 µg/mL | AUC(0-t) [1, 10]: 1090 µg·h/mL | Cmax [1, 11]: 157 µg/mL | Tmax [1, 11]: 8.5 h | AUC(0-t) [1, 11]: 322 µg·h/mL | Cmax [1, 12]: 141 µg/mL | Tmax [1, 12]: 8.5 h | AUC(0-t) [1, 12]: 393 µg·h/mL | Cmax [1, 13]: 227 µg/mL | Tmax [1, 13]: 8.5 h | AUC(0-t) [1, 13]: 520 µg·h/mL | Cmax [1, 14]: 252 µg/mL | Tmax [1, 14]: 0.5 h | AUC(0-t) [1, 14]: 794 µg·h/mL | Cmax [1, 15]: 294 µg/mL | AUC(0-t) [1, 15]: 839 µg·h/mL | Cmax [1, 16]: 334 µg/mL | Tmax [1, 16]: 8.5 h | AUC(0-t) [1, 16]: 1070 µg·h/mL | Tmax ([1]; female, po, 1.5 g/kg, 1.5 g/kg/dose BID, Day 28, Female): 8.5 h | Cmax [1, 17]: 124 µg/mL | Tmax [1, 17]: 0.5 h | AUC(0-t) [1, 17]: 351 µg·h/mL | Cmax [1, 18]: 138 µg/mL | Tmax [1, 18]: 0.5 h | AUC(0-t) [1, 18]: 450 µg·h/mL | Cmax [1, 19]: 286 µg/mL | Tmax [1, 19]: 8.5 h | AUC(0-t) [1, 19]: 559 µg·h/mL | Cmax [1, 20]: 238 µg/mL | Tmax [1, 20]: 8.5 h | AUC(0-t) [1, 20]: 818 µg·h/mL | Cmax [1, 21]: 377 µg/mL | AUC(0-t) [1, 21]: 1340 µg·h/mL | Cmax [1, 22]: 433 µg/mL | Tmax [1, 22]: 8.5 h | AUC(0-t) [1, 22]: 972 µg·h/mL | Tmax ([1]; male, po, 1.5 g/kg, 1.5 g/kg/dose BID, Day 28, Male): 8.5 h | treadmill exhaustion running distance and running time ([2]; 2, 5 g/kg/day, 5 g/kg/dose BID, 3.3 g/kg/dose TID): improvements | creatine kinase activity ([2]; 6 months): decreased with increasing doses | increase in running time ([2]; 6 months, 2 g/kg/day): 50-75% | increase in treadmill distance ([2]; 6 months, 2 g/kg/day): 50% | efficacious dose ([2]; FKRP mutant mouse models): 500 mg/kg | glycosylation levels in skeletal muscles ([2]; from undetectable levels): up to 26% | muscle histology ([2]; long-term oral dosing): decreases in fibrosis | levels of ribitol, ribitol-5-phosphate, CDP-ribitol in heart and leg muscles versus untreated mice ([2]; oral or intravenous): up to 4 times | inhibition at 0.03 mM [3]: 3.09% | inhibition at 0.3 mM [3]: 6.43% | inhibition at 3 mM [3]: 7.82% | IC50 [4]: > 2900 µM

Reference: patent publication US20230364118A1, “RIBITOL TREATMENT” (priority 2020, published 2023)
